Measured values reported in ChEMBL document CHEMBL5316338, “Discovery of Novel PTP1B Inhibitors with Once-Weekly Therapeutic Potential for Type 2 Diabetes: Design, Synthesis, and In Vitro and In Vivo Investigations of BimBH3 Peptide Analogues” (J Med Chem, 2023).
Activity calls are given as the source filed them. The rule behind the calls is not given here. Square brackets hold non-standard residues; d marks the D form. Peptide text beside a SMILES is read from it. * marks the point of attachment. ξ: configuration not given here. C18 diacid = O=C(O)CCCCCCCCCCCCCCCCC(=O)*; Myristoyl = CCCCCCCCCCCCCC(=O)*; ξR = N=C(N)NCCCC(N)C(=O)O

Tests used:
[1] = target: T1, Tyrosine-protein phosphatase non-receptor type 2 (Homo sapiens) (UniProt P17706); assay: Inhibition of recombinant human TC-PTP (1 to 314 residues) expressed in baculovirus infected insect cells using pNPP as substrate assessed as substrate hydrolysis at 50 umol/L relative to control; details: Insect cell, dose 50.0 µmol/L
T1 sequence (whole entry): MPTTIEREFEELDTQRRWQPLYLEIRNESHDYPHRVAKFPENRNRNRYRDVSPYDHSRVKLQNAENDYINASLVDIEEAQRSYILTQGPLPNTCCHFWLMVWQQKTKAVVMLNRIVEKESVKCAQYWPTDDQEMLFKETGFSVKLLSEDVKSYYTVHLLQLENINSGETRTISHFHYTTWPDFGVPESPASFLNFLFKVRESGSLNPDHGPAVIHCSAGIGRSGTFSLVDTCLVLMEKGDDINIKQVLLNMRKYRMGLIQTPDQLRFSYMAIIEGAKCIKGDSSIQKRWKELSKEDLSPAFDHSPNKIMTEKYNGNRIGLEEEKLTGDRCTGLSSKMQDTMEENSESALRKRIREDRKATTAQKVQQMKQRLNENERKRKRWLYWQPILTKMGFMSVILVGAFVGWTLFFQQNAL

Proteinase K = assay: Stability of compound assessed as Proteinase K (unknown origin) mediated compound degradation by measuring half-life by HPLC analysis; type: ADME
Pepsin = assay: Stability of compound assessed as Pepsin (unknown origin) mediated compound degradation by measuring half-life by HPLC analysis; type: ADME; details: human
chymotrypsin [2] = target: chymotrypsin (Homo sapiens, UniProt P17538+P40313+Q6GPI1+Q99895); assay: Stability of compound assessed as chymotrypsin (unknown origin) mediated compound degradation by measuring half-life by RP-HPLC analysis; type: ADME, protein assay
carboxypeptidase A = target: T2, carboxypeptidase A (Homo sapiens, UniProt P15085); assay: Stability of compound assessed as carboxypeptidase A (unknown origin) mediated compound degradation by measuring half-life by RP-HPLC analysis; type: ADME
T2 sequence (P15085 whole entry): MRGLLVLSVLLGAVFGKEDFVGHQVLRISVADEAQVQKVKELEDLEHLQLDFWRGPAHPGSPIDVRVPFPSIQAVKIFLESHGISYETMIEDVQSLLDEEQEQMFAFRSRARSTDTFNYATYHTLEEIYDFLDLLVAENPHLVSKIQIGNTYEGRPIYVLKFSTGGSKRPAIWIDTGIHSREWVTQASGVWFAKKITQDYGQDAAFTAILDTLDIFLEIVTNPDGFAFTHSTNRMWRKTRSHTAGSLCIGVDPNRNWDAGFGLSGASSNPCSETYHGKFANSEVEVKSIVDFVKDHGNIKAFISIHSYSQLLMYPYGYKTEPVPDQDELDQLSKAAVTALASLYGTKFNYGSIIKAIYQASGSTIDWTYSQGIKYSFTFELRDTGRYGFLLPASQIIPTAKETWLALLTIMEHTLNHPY

Mus musculus [3] = assay: Antidiabetic activity against C57BL/Ks db/db mouse assessed as reduction in fasting blood glucose level at 1 uM/kg, sc administered once a week for 2 weeks by glucometer analysis; type: functional, organism-based
[4] = Stability of compound assessed as Proteinase K (unknown origin) mediated compound degradation by measuring fold change of half-life by HPLC analysis relative to BimBH312-mer peptide; type: ADME
Chymotrypsin [5] = target: Chymotrypsin (Homo sapiens, UniProt Q99895+P17538+P40313+Q6GPI1); assay: Stability of compound assessed as chymotrypsin (unknown origin) mediated compound degradation by measuring fold change of half-life by RP-HPLC analysis relative to BimBH312-mer peptide; type: ADME, protein assay
Carboxypeptidase A1 = target: T3, Carboxypeptidase A1 (Homo sapiens, UniProt P15085); assay: Stability of compound assessed as carboxypeptidase A (unknown origin) mediated compound degradation by measuring fold change of half-life by RP-HPLC analysis relative to BimBH312-mer peptide; type: ADME
T3 sequence (P15085 whole entry): T2 sequence (P15085 whole entry)

[6] = Toxicity in C57BL/Ks db/db mouse assessed as signs of discomfort at 1 uM/kg, sc administered for 2 weeks; type: organism-based; details: in vivo, 336 h
[7] = Toxicity in C57BL/Ks db/db mouse assessed as signs of distress at 1 uM/kg, sc administered for 2 weeks; type: organism-based; details: in vivo, 336 h
Mus musculus [8] = assay: Antidiabetic activity against C57BL/Ks db/db mouse assessed as redcution in fasting blood glucose level at 1 umol/kg, sc administered once a week and measured on day 8 by glucometer analysis (reference value: 27.7 +/- 3.7 […]); type: functional; details: dose 1 µmol/kg, time 8 day
Mus musculus [9] = assay: Antidiabetic activity against C57BL/Ks db/db mouse assessed as redcution in fasting blood glucose level at 1 umol/kg, sc administered once a week and measured on day 15 by glucometer analysis (reference value: 27.3 +/- 2.4 […]); type: functional; details: dose 1 µmol/kg, time 15 day
Mus musculus [10] = assay: Antidiabetic activity against C57BL/Ks db/db mouse assessed as redcution in fasting blood glucose level at 1 umol/kg, sc administered once a week and measured on day 22 by glucometer analysis (reference value: 27.4 +/- 1.8 […]); type: functional; details: dose 1 µmol/kg, time 22 day
Mus musculus [11] = assay: Antidiabetic activity against C57BL/Ks db/db mouse assessed as redcution in fasting blood glucose level at 1 umol/kg, sc administered once a week and measured on day 24 by glucometer analysis (reference value: 30.2 +/- 3.2 […]); type: functional; details: dose 1 µmol/kg, time 24 day
Mus musculus [12] = assay: Antidiabetic activity against C57BL/Ks db/db mouse assessed as redcution in fasting blood glucose level at 1 umol/kg, sc administered once a week and measured on day 26 by glucometer analysis (reference value: 31.4 +/- 2.2 […]); type: functional; details: dose 1 µmol/kg, time 26 day
Mus musculus [13] = assay: Antidiabetic activity against over-night fasted C57BL/ks db/db mouse assessed as suppression of increased blood glucose concentration at 1 uM/kg, sc pretreated with compound for 4 weeks followed by oral glucose stimulation and measured upto 120 mins by oral glucose tolerance test; type: functional, organism-based; details: time 40440.0 min
Mus musculus [14] = assay: Antidiabetic activity against sc dosed C57BL/Ks db/db mouse assessed as reduction in serum insulin level at 1 umol/kg by ELISA analysis; type: functional, organism-based; details: dose 1.0 µmol/kg
Mus musculus [15] = assay: Antidiabetic activity against sc dosed C57BL/Ks db/db mouse assessed as reduction in C-peptide level at 1 umol/kg by ELISA analysis; type: functional, organism-based; details: dose 1.0 µmol/kg
Mus musculus [16] = assay: Antidiabetic activity against sc dosed C57BL/Ks db/db mouse assessed as reduction in glucagon level at 1 umol/kg by ELISA analysis; type: functional, organism-based; details: dose 1.0 µmol/kg

inhibition [1] | half-life (Proteinase K) | half-life (Pepsin) | half-life (chymotrypsin [2]) | half-life (carboxypeptidase A) | fold change (FC) [4] | fold change (FC) (Chymotrypsin [5]) | fold change (FC) (Carboxypeptidase A1) | SMILES | Activity (Mus musculus [3]) | Activity [6] | Activity [7] | Fasting blood glucose level (Mus musculus [8]) | Fasting blood glucose (Mus musculus [9]) | Fasting blood glucose level (Mus musculus [10]) | Fasting blood glucose level (Mus musculus [11]) | Fasting blood glucose level (Mus musculus [12]) | Activity (Mus musculus [13]) | Activity (Mus musculus [14]) | Activity (Mus musculus [15]) | Activity (Mus musculus [16])
< 50% | 7.8 min | 406 min | 12 min | 271 min | 2.6 | 4.7 | 140.9 | CC[C@H](C)[C@H](NC(=O)CCCCCCCCCCCCCCCCC(=O)O)C(=O)N[C@@H](C)C(=O)N[C@@H](CCC(N)=O)C(=O)N[C@@H](CCC(=O)O)C(=O)N[C@@H](CC(C)C)C(=O)N[C@@H](CCCNC(=N)N)C(=O)NC(CCCNC(=N)N)C(=O)N[C@H](C(=O)NCC(=O)N[C@@H](CC(=O)O)C(=O)N[C@@H](CCC(=O)O)C(=O)N[C@@H](Cc1ccccc1)C(=O)O)[C@@H](C)CC (stereo not given in full) ({C18 diacid}-IAQELR[ξR]IGDEF-OH) | Active | Non-Toxic | Non-Toxic | 11.1 mmol/L | 8.7 mmol/L | 9.9 mmol/L | 14.3 mmol/L | 22.9 mmol/L | Active | Active | Active | Active
< 50% | 17.4 min | 39 min | 178 min | 61.2 min | 5.8 | 68.8 | 31.9 | CCCCCCCCCCCCCC(=O)N[C@H](C(=O)N[C@@H](C)C(=O)N[C@@H](CCC(N)=O)C(=O)N[C@@H](CCC(=O)O)C(=O)N[C@@H](CC(C)C)C(=O)N[C@@H](CCCNC(=N)N)C(=O)NC(CCCNC(=N)N)C(=O)N[C@H](C(=O)NCC(=O)N[C@@H](CC(=O)O)C(=O)N[C@@H](CCC(=O)O)C(=O)N[C@@H](Cc1ccccc1)C(=O)O)[C@@H](C)CC)[C@@H](C)CC (stereo not given in full) (Myristoyl-IAQELR[ξR]IGDEF-OH) | Active | Non-Toxic | Non-Toxic | 10.3 mmol/L | 8.3 mmol/L | 11.2 mmol/L | 14.2 mmol/L | 12.9 mmol/L | Active | Active | Active | Active
